Test results reported in ChEMBL document CHEMBL1201862, “PubChem BioAssay data set” (2004).
Activity calls are given as the source filed them.

What was measured:
[1] = biological target: ADP-ribosylation factor GTPase-activating protein 1 (Rattus norvegicus, UniProt Q62848); test: Fluorescence polarization-based biochemical high throughput dose response screening assay to identify inhibitors of ADP-ribosylation factor GTPase activating protein 1 (ARFGAP1).; type: functional
[2] = biological target: Peroxisome proliferator-activated receptor gamma/Nuclear receptor coactivator 1 (Homo sapiens, UniProt P37231); type: functional;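 also: agonist potency as compounds enhance coactivator SRC-1 recruitment to PPARgamma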
[3] = biological target: Peroxisome proliferator-activated receptor gamma/Nuclear receptor coactivator 3 (Homo sapiens, UniProt P37231); type: functional;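 also: agonist potency for raising coactivator recruitment to the receptor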
[4] = biological target: Peroxisome proliferator-activated receptor gamma/Nuclear receptor coactivator 2 (Homo sapiens, UniProt P37231); type: functional;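 also: agonist potency for raising coactivator recruitment to the receptor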
[5] = biological target: T1, Heat shock factor protein 1 (Mus musculus, UniProt P38532); test: HSF1 potentiators in luciferase reporter cells, confirmation, cell-based, NIH3T3, luminescence, dose retest (AID 435004); type: functional;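 also: stress induced by proteasome inhibitor MG132 added 30 min after compound; luciferase reporter driven by HSF1 response element in NIH3T3 cells; actives raise luminescence as potentiators of the MG132 stress response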
T1 sequence (P38532 whole entry): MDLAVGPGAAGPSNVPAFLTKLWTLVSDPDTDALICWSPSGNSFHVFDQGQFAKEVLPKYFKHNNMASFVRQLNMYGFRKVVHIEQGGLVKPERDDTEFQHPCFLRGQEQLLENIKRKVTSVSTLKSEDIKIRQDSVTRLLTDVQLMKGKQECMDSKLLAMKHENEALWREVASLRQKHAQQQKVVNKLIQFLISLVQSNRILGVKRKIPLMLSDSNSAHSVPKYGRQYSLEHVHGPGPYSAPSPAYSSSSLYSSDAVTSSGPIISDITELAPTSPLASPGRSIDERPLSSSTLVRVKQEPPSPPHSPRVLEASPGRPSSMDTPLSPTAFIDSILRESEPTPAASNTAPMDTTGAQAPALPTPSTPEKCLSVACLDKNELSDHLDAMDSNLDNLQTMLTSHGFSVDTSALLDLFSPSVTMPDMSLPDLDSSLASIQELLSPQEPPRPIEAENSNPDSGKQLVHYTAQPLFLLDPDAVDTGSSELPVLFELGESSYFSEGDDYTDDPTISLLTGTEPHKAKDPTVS

HEK293 [6] = test: cells; details: Homo sapiens
Paired box protein Pax-8 = Paired box protein Pax-8 (Homo sapiens, UniProt Q06710); test: inhibitors of PAX8-driven TPO luciferase reporter, dose response, RMG-I cells, cherry-pick (AID 687027); type: functional, cell-based;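 also: luciferase reporter driven by Pax8 target thyroperoxidase promoter measured by SteadyGlo luminescence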
[7] = insulin promoter down-regulators in MIN6 cells, imaging, high-content screening, mouse beta cells (AID 1628); type: functional
[8] = Luminescence Cell-Based Dose Retest to Confirm Inhibitors of Cancer Stem Cells. [Related pubchem assays (depositor defined):AID2717, AID2721]; type: functional; details: Homo sapiens
Galanin receptor type 2 = Galanin receptor type 2 (Homo sapiens, UniProt O43603); test: Dose Response cell-based high-throughput screening assay to identify antagonists of galanin receptor 2 (GALR2). [Related pubchem assays: 828, 866 ]; type: functional
[9] = biological target: Sphingosine 1-phosphate receptor 4 (Homo sapiens, UniProt O95977); test: Fluorescence dose response cell-based high throughput screening assay for antagonists of the Sphingosine 1-Phosphate Receptor 4 (S1P4). [Related pubchem assays: 1524 (Confirmation in triplicates.), 1510 (Primary screen.)]; type: functional
[10] = inhibitors of PGC1a acetylation in cells, dose response, cell-based, cherry-picked samples (AID 720514); type: functional;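 also: potency may reflect raised or lowered acetylation signal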
[11] = cytotoxicity in MIN6 insulinoma cells, dose response, cytotoxicity control, cell-based, mouse insulinoma (AID 2122); type: functional;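 also: confirmatory high-throughput counterscreen run to flag cytotoxic compounds; mouse MIN-6 beta cells carrying an insulin promoter eGFP reporter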
[12] = Fluorescence-based cell-based high throughput dose response assay for inhibitors of the interaction of nucleotide-binding oligomerization domain containing 2 (NOD2) and the receptor-interacting serine-threonine kinase 2 (RIPK2).; type: functional; details: Homo sapiens
[13] = biological target: Sphingosine 1-phosphate receptor 1 (Homo sapiens, UniProt P21453); type: functional;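 also: Tango beta-arrestin reporter U2OS cells stimulated with S1P near its EC80; inhibitor potency meaning antagonism of receptor activation by the natural agonist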
HEK293 [14] = test: cells; details: Homo sapiens; remark: listed apart in the source
HeLa = test: Cytotoxicity counterscreen assay for transcriptional activators of heat shock protein 70 (Hsp70). [Related pubchem assays: 1203, 1252 ]; type: functional; details: Homo sapiens;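 also: cells exposed to compound for 16 hours before readout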
[15] = biological target: Heat shock protein HSP 90-alpha (Homo sapiens, UniProt P07900); type: functional, organism-based
INS1 = test: beta cell apoptosis inhibitors, cytokine rescue, dose response, luminescence, retest (AID 449756); type: functional, cell-based; details: Rattus norvegicus;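 also: cell death triggered by IL-1 beta plus TNF-alpha plus IFN-gamma mixture; protective hits raise ATP signal compared with cytokine alone wells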
[16] = C. albicans growth with fluconazole, confirmation, fluorescence, retest (AID 2467); type: functional, cell-based
[17] = biological target: T2, Serine/threonine-protein phosphatase (Candida dubliniensis (strain CD36 / CBS 7987 / NCPF 3949 / NRRLY-17841) (Yeast), UniProt B9W6M3); test: calcineurin pathway inhibitors in yeast reporter, dose response, S. cerevisiae, CDRE-lacZ, luminescence, secondary (AID 2388); type: functional, cell-based;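 also: yeast reporter cells carrying a calcineurin-responsive lacZ construct stimulated with calcium chloride; luminescent beta-galactosidase reporter signal in whole cells rather than isolated phosphatase activity; potency for inhibition where a drop in reporter signal means calcineurin blockade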
T2 sequence (B9W6M3 whole entry): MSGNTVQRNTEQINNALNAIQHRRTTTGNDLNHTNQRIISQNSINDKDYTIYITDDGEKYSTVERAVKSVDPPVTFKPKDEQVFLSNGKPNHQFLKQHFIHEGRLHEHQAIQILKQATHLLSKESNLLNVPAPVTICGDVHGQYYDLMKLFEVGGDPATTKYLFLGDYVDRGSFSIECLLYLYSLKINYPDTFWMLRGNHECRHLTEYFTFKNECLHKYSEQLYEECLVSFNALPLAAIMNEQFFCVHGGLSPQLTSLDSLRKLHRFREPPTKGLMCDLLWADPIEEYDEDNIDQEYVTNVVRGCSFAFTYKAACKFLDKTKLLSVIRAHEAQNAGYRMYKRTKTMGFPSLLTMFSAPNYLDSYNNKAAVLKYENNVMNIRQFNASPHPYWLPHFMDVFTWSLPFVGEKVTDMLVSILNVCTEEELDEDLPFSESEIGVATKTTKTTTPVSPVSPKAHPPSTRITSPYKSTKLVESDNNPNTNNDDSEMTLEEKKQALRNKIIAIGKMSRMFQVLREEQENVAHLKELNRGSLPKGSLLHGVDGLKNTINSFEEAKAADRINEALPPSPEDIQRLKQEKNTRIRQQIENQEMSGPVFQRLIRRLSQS

[18] = biological target: ATP-dependent molecular chaperone HSP82 (Candida albicans (strain WO-1) (Yeast), UniProt C4YTQ8); test: loss of DOC-induced GRE-beta-galactosidase reporter signal, dose response, Hsp90 inhibitor project, S. cerevisiae, luminescence (AID 2400); type: functional, cell-based;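 also: beta-galactosidase luminescence from glucocorticoid response element reporter as proxy for Hsp90 function; inhibitor potency where signal loss means Hsp90 inhibition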
[19] = NIH-3T3 fibroblast cytotoxicity, dose response, cytotoxicity control, cell-based, fluorescence, Alamar Blue, secondary assay (AID 2327); type: functional;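 also: NIH-3T3 mouse fibroblasts cultured with fluconazole at 8 µg/mL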
[20] = inhibitors of SNCA 5'UTR-driven translation, confirmation, luminescence, H4 neuroglioblastoma cells, dose confirmation (AID 2454); type: functional, cell-based;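 also: H4 neuroglioblastoma cells carrying an alpha-synuclein 5'UTR luciferase reporter; potency for inhibition of the luciferase signal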
[21] = inhibitors of SNCA 5'UTR-driven reporter translation, confirmation, H4 neuroglioma cells, luminescence (AID 1988); type: functional, cell-based
Streptococcus = test: Group A Streptococcus viability loss, dose response, counter-screen for streptokinase expression inhibitor project, luminescence, BacTiterGlo (AID 1915); type: functional, organism-based;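 also: potency for reduction of bacterial viability or growth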
Streptokinase A = biological target: T3, Streptokinase A (Streptococcus pyogenes serotype M1, UniProt P10520); test: S. pyogenes streptokinase expression inhibitors, potency, dose response, plasminogen activation absorbance, OD405 (AID 1914); type: functional, Streptococcus pyogenes M1 GAS;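 also: secreted streptokinase activity via plasminogen activation per viability signal from cell pellet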
T3 sequence (P10520 whole entry): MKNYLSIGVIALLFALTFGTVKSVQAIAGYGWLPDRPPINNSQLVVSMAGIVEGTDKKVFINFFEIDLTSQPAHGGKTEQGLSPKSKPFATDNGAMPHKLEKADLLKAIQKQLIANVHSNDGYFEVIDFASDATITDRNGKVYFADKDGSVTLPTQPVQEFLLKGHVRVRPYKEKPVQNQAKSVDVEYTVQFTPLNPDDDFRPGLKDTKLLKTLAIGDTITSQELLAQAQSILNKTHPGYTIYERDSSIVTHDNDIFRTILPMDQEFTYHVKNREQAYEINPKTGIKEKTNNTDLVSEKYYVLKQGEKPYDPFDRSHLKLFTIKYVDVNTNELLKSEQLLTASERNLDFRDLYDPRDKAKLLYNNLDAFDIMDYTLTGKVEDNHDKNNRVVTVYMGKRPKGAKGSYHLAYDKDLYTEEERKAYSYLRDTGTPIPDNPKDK

[22] = luciferase reporter signal reduction – luminescence, H4-C neuroglioblastoma cells, dose response (AID 2458); type: functional, cell-based;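 also: H4 neuroglioblastoma cells stably carrying a luciferase reporter gene fusion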
[23] = system: Streptococcus sp. 'group A'; test: growth inhibition of control SK(-) GAS strain, dose response, counter-screen for streptokinase expression inhibitor project, luminescence, kanamycin, BacTiterGlo, confirmation (AID 1900); type: functional, organism-based
[24] = inhibitors of intracellular T. cruzi replication, confirmation, NIH3T3 host cells, beta-gal luminescence (AID 2044); type: functional, cell-based;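 also: intracellular parasites grown in NIH/3T3 mouse fibroblasts as host cells; luminescent beta-galactosidase reporter signal from transgenic T. cruzi replicating inside host cells; inhibitors lower the luminescence signal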
[25] = biological target: G-protein coupled receptor 55 (Homo sapiens, UniProt Q9Y2T6); test: GPR55 agonists via beta-arrestin recruitment, primary screen, imaging, U2OS cells, beta-arrestin-GFP redistribution (AID 1961); type: functional
[26] = cytotoxicity toward NIH3T3 fibroblasts, dose response, counter-screen, cell-based, ATP luminescence, mouse fibroblasts (AID 2010); type: functional;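 also: cells exposed to compound for about 90 hours before reading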
cells = type: functional, cell-based

Sequence of Sphingosine 1-phosphate receptor 4 (O95977 whole entry): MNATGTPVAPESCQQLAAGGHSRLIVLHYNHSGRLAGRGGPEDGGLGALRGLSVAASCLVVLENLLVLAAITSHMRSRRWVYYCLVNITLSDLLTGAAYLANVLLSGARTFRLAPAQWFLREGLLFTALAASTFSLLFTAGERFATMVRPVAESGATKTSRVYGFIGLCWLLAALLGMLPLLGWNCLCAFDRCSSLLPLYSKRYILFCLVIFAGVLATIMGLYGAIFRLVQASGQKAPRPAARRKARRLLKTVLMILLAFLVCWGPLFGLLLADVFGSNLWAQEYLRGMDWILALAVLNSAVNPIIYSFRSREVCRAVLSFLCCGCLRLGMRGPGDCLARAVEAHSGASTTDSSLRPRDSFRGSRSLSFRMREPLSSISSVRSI
Sequence of ADP-ribosylation factor GTPase-activating protein 1 (Q62848 whole entry): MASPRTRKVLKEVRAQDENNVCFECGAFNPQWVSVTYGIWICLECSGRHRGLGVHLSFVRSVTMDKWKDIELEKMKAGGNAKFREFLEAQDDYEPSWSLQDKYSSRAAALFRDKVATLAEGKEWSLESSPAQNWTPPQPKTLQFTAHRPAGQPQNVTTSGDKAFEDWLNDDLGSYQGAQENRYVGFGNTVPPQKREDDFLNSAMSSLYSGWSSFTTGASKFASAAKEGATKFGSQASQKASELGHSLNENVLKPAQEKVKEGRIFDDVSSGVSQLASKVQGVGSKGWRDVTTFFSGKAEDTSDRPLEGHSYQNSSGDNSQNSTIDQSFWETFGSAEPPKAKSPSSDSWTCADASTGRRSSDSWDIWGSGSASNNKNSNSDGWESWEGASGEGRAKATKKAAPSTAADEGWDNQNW
Sequence of Peroxisome proliferator-activated receptor gamma/Nuclear receptor coactivator 2 (P37231 whole entry): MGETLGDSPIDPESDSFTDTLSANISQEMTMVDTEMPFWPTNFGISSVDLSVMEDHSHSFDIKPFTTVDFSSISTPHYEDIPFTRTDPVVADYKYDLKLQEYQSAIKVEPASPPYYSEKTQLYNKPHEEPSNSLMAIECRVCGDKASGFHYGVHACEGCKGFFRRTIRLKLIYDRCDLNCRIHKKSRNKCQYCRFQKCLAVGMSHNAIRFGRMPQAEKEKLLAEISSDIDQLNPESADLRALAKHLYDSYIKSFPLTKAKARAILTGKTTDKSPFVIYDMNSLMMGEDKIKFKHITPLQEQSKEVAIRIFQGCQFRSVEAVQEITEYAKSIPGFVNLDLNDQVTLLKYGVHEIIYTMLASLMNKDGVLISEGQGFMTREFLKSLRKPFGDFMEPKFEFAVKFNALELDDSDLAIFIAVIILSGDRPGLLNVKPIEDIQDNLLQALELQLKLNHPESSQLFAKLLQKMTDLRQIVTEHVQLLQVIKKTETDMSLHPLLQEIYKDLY
Sequence of Peroxisome proliferator-activated receptor gamma/Nuclear receptor coactivator 2 (Q15596 whole entry, further chain): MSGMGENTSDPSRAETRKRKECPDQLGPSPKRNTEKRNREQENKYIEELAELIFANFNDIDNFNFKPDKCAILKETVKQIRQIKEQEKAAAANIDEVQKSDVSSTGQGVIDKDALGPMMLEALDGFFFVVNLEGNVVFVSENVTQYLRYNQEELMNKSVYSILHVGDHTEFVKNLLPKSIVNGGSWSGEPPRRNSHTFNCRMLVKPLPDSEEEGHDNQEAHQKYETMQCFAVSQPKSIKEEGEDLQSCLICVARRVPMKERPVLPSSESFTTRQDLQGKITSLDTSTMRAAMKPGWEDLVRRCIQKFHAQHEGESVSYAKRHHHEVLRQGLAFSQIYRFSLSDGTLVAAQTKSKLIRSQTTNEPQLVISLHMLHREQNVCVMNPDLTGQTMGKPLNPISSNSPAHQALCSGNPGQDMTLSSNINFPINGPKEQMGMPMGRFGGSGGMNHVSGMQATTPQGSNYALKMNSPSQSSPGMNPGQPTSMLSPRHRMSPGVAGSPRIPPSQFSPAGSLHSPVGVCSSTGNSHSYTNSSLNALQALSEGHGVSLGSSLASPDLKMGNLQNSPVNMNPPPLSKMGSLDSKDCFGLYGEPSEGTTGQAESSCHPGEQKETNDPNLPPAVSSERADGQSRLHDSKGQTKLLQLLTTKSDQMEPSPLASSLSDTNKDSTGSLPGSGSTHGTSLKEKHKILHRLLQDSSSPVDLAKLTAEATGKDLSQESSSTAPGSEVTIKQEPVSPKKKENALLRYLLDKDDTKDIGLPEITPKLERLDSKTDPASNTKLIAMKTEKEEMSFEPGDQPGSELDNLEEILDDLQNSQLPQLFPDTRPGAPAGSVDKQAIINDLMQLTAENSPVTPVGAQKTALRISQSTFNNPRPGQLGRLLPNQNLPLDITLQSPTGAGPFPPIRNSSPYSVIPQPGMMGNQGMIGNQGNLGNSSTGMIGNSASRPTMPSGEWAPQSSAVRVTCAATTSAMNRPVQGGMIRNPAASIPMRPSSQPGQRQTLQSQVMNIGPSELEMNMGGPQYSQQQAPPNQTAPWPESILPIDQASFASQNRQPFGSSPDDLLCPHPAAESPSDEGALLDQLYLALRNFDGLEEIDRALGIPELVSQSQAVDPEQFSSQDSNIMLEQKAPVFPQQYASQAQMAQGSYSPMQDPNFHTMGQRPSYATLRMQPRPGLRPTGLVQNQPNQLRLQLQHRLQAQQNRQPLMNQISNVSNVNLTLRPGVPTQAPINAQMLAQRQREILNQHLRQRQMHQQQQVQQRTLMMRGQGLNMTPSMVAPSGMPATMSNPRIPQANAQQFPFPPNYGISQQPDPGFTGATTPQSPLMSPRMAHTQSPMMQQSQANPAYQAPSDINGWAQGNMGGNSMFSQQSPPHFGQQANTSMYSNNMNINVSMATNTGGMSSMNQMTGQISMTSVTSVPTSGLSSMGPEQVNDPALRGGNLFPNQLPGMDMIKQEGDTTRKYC
Sequence of Peroxisome proliferator-activated receptor gamma/Nuclear receptor coactivator 3 (P37231 whole entry): as the sequence (P37231 whole entry) above
Sequence of Peroxisome proliferator-activated receptor gamma/Nuclear receptor coactivator 3 (Q9Y6Q9 whole entry, further chain): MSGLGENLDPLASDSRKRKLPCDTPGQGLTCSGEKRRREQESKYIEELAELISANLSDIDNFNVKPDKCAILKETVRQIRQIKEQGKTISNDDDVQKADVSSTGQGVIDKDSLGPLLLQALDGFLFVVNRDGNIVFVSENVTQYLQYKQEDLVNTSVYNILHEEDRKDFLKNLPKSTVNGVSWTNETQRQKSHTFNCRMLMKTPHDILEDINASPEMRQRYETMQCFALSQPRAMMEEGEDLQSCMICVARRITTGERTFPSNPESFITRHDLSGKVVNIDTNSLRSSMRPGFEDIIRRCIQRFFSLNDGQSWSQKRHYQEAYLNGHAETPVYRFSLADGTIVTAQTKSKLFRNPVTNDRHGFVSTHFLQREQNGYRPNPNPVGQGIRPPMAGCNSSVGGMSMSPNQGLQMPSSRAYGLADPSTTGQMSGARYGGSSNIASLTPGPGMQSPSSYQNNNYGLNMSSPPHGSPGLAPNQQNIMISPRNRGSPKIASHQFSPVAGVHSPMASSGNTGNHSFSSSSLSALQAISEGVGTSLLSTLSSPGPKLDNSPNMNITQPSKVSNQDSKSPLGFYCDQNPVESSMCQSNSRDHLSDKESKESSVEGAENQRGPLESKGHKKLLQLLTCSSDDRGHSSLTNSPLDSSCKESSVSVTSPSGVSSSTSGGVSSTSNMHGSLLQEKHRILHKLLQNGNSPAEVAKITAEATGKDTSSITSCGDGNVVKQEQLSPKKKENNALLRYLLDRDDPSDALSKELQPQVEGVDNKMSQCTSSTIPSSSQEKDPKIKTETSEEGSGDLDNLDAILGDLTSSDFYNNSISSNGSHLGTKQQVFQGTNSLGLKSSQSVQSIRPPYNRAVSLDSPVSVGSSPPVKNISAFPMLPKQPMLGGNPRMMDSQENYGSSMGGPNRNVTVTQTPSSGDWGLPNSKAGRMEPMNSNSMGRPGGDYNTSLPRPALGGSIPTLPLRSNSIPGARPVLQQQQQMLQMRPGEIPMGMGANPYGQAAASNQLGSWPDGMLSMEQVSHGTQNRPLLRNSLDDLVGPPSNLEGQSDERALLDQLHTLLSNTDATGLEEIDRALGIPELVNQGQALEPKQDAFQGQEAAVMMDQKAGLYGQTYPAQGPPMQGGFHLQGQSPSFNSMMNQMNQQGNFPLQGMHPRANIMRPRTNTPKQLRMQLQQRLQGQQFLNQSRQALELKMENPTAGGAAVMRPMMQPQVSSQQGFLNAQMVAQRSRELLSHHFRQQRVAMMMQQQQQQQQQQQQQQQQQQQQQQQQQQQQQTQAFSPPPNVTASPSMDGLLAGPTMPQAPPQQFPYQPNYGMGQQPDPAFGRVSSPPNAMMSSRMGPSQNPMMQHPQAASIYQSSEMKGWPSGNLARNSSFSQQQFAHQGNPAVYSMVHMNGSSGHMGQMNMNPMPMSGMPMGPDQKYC
Sequence of G-protein coupled receptor 55 (Q9Y2T6 whole entry): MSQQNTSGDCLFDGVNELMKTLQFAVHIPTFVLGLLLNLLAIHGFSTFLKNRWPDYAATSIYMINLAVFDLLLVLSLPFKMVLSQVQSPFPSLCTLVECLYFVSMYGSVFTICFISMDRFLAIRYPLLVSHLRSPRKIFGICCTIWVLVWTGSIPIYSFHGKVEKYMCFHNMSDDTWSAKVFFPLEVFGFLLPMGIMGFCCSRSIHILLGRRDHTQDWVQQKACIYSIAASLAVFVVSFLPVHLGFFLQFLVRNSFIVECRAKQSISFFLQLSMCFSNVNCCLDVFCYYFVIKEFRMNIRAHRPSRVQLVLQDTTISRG

Compound: COc1ccccc1CNC(=O)CSc1nc(N)c(C#N)c(-c2cccs2)c1C#N
- IC50 [1]: 43.2 µM (inactive)
- EC50 [2]: > 79.4 µM (not active)
- EC50 [3]: > 79.4 µM (not active)
- EC50 [4]: 67.6 µM (not active)

Compound: O=C(Cn1ncc(Cl)c(Cl)c1=O)N1CCN(S(=O)(=O)c2ccc3ccccc3c2)CC1
- EC50 [5]: 3.7 µM (active)
- EC50 (HEK293 [6]): > 59.6 µM (inactive)
- AC50 (Paired box protein Pax-8): 2.51 µM (active)
- IC50 [7]: 1.34 µM (active)
- AC50 [8]: 3.25 µM (active)
- IC50 (Galanin receptor type 2): 5.37 µM (active)
- IC50 [9]: 1.52 µM (active)
- AC50 [10]: 4.24 µM (active)
- IC50 [11]: 1.19 µM (active)
- IC50 [12]: 1.77 µM (active)
- IC50 [13]: 8.59 µM (active)
- EC50 (HEK293 [14]): > 59.6 µM (inactive)

Compound: CC(C)(C)C1C/C(=C/c2ccccn2)C(=O)/C(=C/c2ccccn2)C1 (centres undefined)
- CC50 (HeLa): > 1.22 µM (not active)
- AC50 [15]: 7.8 µM (active)
- AC50 (INS1): 0.579 µM (active)

Compound: CC1CCN(Cc2c(C(=O)N/N=C/c3cc(Br)ccc3O)nnn2-c2nonc2N)CC1
- EC50 [16]: 0.622 µM (active)
- EC50 [17]: > 180 µM (inactive)
- EC50 [18]: > 160 µM (inactive)
- EC50 [19]: 35.2 µM (inconclusive)
- EC50 [20]: > 12 µM (not active)
- EC50 [21]: < 0.1 µM (active)
- EC50 (Streptococcus): 8.29 µM (active)
- EC50 (Streptokinase A): 40.3 µM (inconclusive)
- EC50 [22]: 1.79 µM (active)
- EC50 [23]: 4.79 µM (active)
- EC50 [24]: 0.556 µM (active)
- AC50 (INS1): 0.365 µM (active)
- EC50 [25]: 1.63 µM (active)
- EC50 [26]: 5.24 µM (active)
- EC50 (cells): 0.982 µM (active)
